Here are results for 3 compounds from patent publication US20250152719A1, “FUSED IMIDE DERIVATIVE” (Chia Tai Tianqing Pharmaceutical Group Co., Ltd., priority 2021, published 2025).

pIC50: −log10 of the molar value. Read-outs that look alike come from different tables or passages of the source.

The target in series [1] is BTK(WT) kinase (Homo sapiens (Human), UniProt Q06187). In words: Inhibitory activity on BTK(WT) kinase. To be noted: ATP 10 μM. In kind it is biochemical. The procedure:
The Assay Buffer was prepared, and the composition of the Assay Buffer was 50 mM Hepes (Gibco, 15630), 10 mM MgCl2, 2 mM DTT, 1 mM EGTA, and 0.010% Tween 20. BTK(WT) kinase (Life, PR5442A), ATP (Sigma, A7699), and ULight-poly GT (PE, TRF0100-M) working solutions were prepared using the Assay Buffer. EDTA and Eu-labeled anti-phosphotyrosine (PT66) antibody (PE, AD0069) working solutions were prepared using the Detection Buffer (PE, CR97-100). 6 μL of BTK(WT) kinase at the corresponding concentration (final concentration: 0.003 ng/L) was added to the compound groups and the control group, while 6 μL of the Assay Buffer was added to the blank group, and then the compounds (with the concentration set to 1000 nM at the maximum, 4-fold dilution, 7 concentration gradients) were each added using a nanoliter pipettor. The mixture was incubated at room temperature for 30 min, and then 4 μL of the mixture of ATP (final concentration: 10 μM) and ULight-poly GT (final concentration: 100 nM) was added. After incubation at room temperature for 2 h, 5 μL of EDTA (final concentration: 10 mM) was added to stop the reaction, and finally 5 μL of antibody (final concentration: 2 nM) was added. After incubation at room temperature for 1 h, signal values were detected at 665/615 nM, the four-parameter analysis was performed, the dose-response curves were fit, and IC50 was calculated.

For series [2], the system named is OCI-LY10 cells. Description: Inhibitory activity on OCI-LY10 cell proliferation (CCK-8). It is filed as cell-based. In outline: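 Cells seeded at 1×10^5 cells/mL and incubated overnight were exposed in duplicate to final compound concentrations of 5000 nM-0.31 nM for 72 h. CCK-8 was added for 2.5 h and absorbance read at 450 nm. IC50 was obtained from four-parameter dose-response fits.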

The target in series [3] is BTK (Homo sapiens (Human), UniProt Q06187). Description: BTK degradation in OCI-LY10 cells (Total-BTK HTRF kit). It is filed as cell-based. The note with it: 24 (or 6) h incubation; for DC50: DC50 = concentration when degradation rate reaches 50%, read-out: OCI-LY10 cell BTK degradation DC50; for Dmax: OCI-Ly10, OCI-LY10 cells. An outline of the steps: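 OCI-LY10 cells seeded overnight, then treated with compound at 100 nM-0.098 nM in duplicate for 24 (or 6) h. Lysates probed by Total-BTK HTRF (d2/Eu cryptate antibodies, overnight, room temperature), read at 665/620 nm; DC50 and Dmax from four-parameter dose-response fits.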
Chain of BTK (Q06187 whole entry): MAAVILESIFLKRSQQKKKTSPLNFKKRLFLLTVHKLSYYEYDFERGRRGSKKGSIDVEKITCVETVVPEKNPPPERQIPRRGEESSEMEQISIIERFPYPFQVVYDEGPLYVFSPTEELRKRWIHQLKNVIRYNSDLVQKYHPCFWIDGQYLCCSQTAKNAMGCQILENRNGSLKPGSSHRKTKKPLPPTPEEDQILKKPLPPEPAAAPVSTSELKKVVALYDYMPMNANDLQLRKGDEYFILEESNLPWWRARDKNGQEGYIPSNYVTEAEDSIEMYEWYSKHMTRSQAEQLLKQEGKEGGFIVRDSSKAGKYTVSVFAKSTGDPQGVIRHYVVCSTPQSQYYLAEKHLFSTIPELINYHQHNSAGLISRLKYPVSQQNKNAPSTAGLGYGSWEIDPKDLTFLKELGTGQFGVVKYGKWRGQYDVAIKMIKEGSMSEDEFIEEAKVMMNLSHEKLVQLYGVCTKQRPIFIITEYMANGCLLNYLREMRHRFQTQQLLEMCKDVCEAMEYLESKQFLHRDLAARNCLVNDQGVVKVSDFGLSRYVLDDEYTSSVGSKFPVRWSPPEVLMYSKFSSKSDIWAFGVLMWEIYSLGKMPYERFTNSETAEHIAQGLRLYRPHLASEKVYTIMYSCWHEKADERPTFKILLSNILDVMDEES
Background: TR-FRET usually uses a lanthanide donor and a delayed reading to cut background.

The target in series [4] is EGFR kinase (Homo sapiens (Human), UniProt P00533). Description: Inhibitory activity on EGFR kinase. In kind it is biochemical. To be noted: ATP 5 μM. As for the experimental part:
The Assay Buffer was prepared, and the composition of the Assay Buffer was 50 mM Hepes (Gibco, 15630), 10 mM MgCl2, 2 mM DTT, 1 mM EGTA, and 0.010% Tween 20. EGFR kinase (Carna, 08-115), ATP (Sigma, A7699), and ULight-poly GT (PE, TRF0100-M) working solutions were prepared using the Assay Buffer. EDTA and Eu-labeled anti-phosphotyrosine (PT66) antibody (PE, AD0069) working solutions were prepared using the Detection Buffer. 6 μL of EGFR kinase at the corresponding concentration (final concentration: 0.006 ng/μL) was added to the compound groups and the control group, while 6 μL of the Assay Buffer was added to the blank group, and then the compounds (with the concentration set to 1000 nM at the maximum, 4-fold dilution, 7 concentration gradients) were added using a nanoliter pipettor. The mixture was incubated at room temperature for 30 min, and then 4 μL of the mixture of ATP (final concentration: 5 μM) and ULight-poly GT (final concentration: 100 nM) was added. After incubation at room temperature for 2 h, 5 μL of EDTA (final concentration: 10 mM) was added to stop the reaction, and finally 5 μL of antibody (final concentration: 2 nM) was added. After incubation at room temperature for 1 h, signal values were detected at 665/615 nM, the four-parameter analysis was performed, the dose-response curves were fit, and IC50 was calculated.

Series [5] can be described thus: Mouse pharmacokinetics. It is filed as in vivo, ICR mice. An outline of the steps:
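ICR mice (18–22 g, n=9 per group) dosed intragastrically at 10 mg/kg. Orbital blood sampled from 15 min to 24 h; plasma was precipitated with acetonitrile containing internal standard and quantified against a standard curve. Parameters derived by non-compartmental analysis.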

Where [6] appears, read: Homo sapiens, OCI-Ly10, 72 h incubation.
[7] abbreviates: ICR, mouse, plasma, iv, 1 mg/kg, Mouse i.v. 1 mpk.
The mark [8] stands for this setting: ICR, mouse, plasma, iv, 1 mg/kg, Mouse i.v. 1 mpk, read-out: AUC.
Setting [9] is: ICR, mouse, plasma, po, 10 mg/kg, Mouse i.g. 10 mpk.
The mark [10] stands for this setting: ICR, mouse, plasma, po, 10 mg/kg, Mouse i.g. 10 mpk, read-out: AUC.
The mark [11] stands for this setting: ICR, mouse, plasma, po, 10 mg/kg, Mouse i.g. 10 mpk, read-out: Cmax.

Chain of BTK(WT) kinase (Q06187 whole entry): as above
Chain of EGFR kinase (P00533 669-1210): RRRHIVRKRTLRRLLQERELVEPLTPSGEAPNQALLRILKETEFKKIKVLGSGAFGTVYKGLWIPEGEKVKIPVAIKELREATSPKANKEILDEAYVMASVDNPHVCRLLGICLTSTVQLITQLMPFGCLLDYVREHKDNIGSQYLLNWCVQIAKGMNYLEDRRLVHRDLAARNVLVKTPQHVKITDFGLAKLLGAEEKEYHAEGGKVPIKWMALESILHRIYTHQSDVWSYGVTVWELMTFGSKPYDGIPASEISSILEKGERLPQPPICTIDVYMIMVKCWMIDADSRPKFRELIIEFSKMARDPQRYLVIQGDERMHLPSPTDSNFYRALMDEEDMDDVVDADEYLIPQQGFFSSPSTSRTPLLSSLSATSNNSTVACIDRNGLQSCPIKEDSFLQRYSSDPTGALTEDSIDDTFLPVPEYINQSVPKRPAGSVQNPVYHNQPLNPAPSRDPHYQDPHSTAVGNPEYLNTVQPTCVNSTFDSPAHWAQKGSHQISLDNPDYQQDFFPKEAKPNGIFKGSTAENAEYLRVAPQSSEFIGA

With `CN1CCN([C@@H]2CCCN(c3cnc(C(N)=O)c(Nc4ccc(C5CCN(C6CN(c7ccc8c(C9CCC(=O)NC9=O)noc8c7)C6)CC5)cc4)n3)C2)C1=O` (some centres unmarked) [Compound 10], the pIC50 is 8.15 in series [1], above 9.51 in series [2] (setting [6]) and 5.48 in series [4]. For the same compound, in series [3] (OCI-LY10 cells), the DC50 is below 0.098 nM. In addition, the Dmax in series [3] (maximum degradation rate) worked out at 99%. For the same compound, the clearance in series [5] (setting [7]) was 2.65 mL/min/kg. Besides, the half-life in series [5] (setting [7]) is 1.6 h; in series [5] (setting [9]) it was 2.9 h. The AUC in series [5] (setting [8]) came out at 6140 ng·h/mL; in series [5] (setting [10]), 35600 ng·h/mL. The Cmax in series [5] (setting [11]) was 3850 ng/mL. Also, the F in series [5] (Mouse i.g. 10 mpk) was determined as 57.98%.

`CN1CCN([C@@H]2CCCN(c3cnc(C(N)=O)c(Nc4ccc(N5CCC(CN6CCc7ccc8c(C9CCC(=O)NC9=O)noc8c7CC6)CC5)cc4)n3)C2)C1=O` (some centres unmarked) [Compound 27]: the values for the pIC50 in series [1], in series [2] (setting [6]) and in series [4] were 9.02, above 9.51 and 6.96, respectively. Also, in series [3] (OCI-LY10 cells), the DC50 was below 0.098 nM. The compound further gave a Dmax in series [3] (maximum degradation rate) of 97%. The compound also gave a clearance in series [5] (setting [7]) of 9.33 mL/min/kg. For the same compound, the half-life in series [5] (setting [7]) is 1.4 h; in series [5] (setting [9]) it was 2.4 h. Further, the figures for the area under the curve (AUC) in series [5] (setting [8]) and in series [5] (setting [10]) were 1760 ng·h/mL and 7690 ng·h/mL, respectively. In series [5] (setting [11]), the Cmax amounted to 766 ng/mL. Also, the F in series [5] (Mouse i.g. 10 mpk) is on record as 44.0%.

Consider `CN1CCN([C@@H]2CCCN(c3cnc(C(N)=O)c(Nc4ccc(C5CCC(N6Cc7ccc8c(C9CCC(=O)NC9=O)noc8c7C6)CC5)cc4)n3)C2)C1=O` (some centres unmarked) [Compound 33], for which, in series [1], the pIC50 is 7.96. Besides, the pIC50 in series [2] (72 h incubation) is above 9.51. Besides, the “BTK degradation in OCI-LY10 cells Dmax” value in series [3] (OCI-LY10 cells, maximum degradation rate) is above 90%. The compound further had a pIC50 in series [4] of 6.11. Also, in series [5] (Mouse i.g. 10 mpk), the AUC came out at 20971 ng·h/mL, the Cmax is 1555 ng/mL, the F is recorded as 26.0% and the t1/2 was 3.2 h. In series [5] (Mouse i.v. 1 mpk), this compound showed an AUC of 7987 ng·h/mL, a Cl of 2.17 mL/min/kg and a t1/2 of 2.6 h.

Usually pIC50 stands for the IC50 on a negative log10 scale, so that one unit is a factor of ten. High values mean a low IC50, low ones a high IC50. Broadly, the DC50 is the midpoint of the concentration-degradation curve. Broadly, the Dmax is the largest share of the target that was removed. High values mean deep degradation, low ones shallow degradation. As usually defined, the clearance is the volume of plasma or blood freed of the substance per unit of time. Low values mean inefficient removal, high ones efficient removal. What is called half-life is the time in which the quantity being followed falls by half. A high value points to slow loss. For orientation: AUC means the area under the concentration-time curve, a measure of exposure. The term Cmax denotes the peak of the concentration-time curve.
